Among the data in patent US9422277B2, “Tricyclic substituted thiadiazine dioxide compounds as BACE inhibitors, compositions and their use” (Merck Sharp & Dohme Corp., priority 2012, dated 2016) are Ki values, retold here.

In test [1] the target is soluble human BACE1 catalytic domain (Homo sapiens (Human), UniProt P56817). Briefly: BACE1 HTRF FRET Assay. It is filed as biochemical. The conditions noted are these: Ki calculated from IC50 using the Cheng-Prusoff equation. An excerpt:
A homogeneous time-resolved FRET assay can be used to determine IC50 values for inhibitors of the soluble human BACE1 catalytic domain. This assay monitors the increase of 620 nm fluorescence that resulted from BACE1 cleavage of an APPswedish APP^swe mutant peptide FRET substrate (QSY7-[…]-Europium-amide). This substrate contains an N-terminal QSY7 moiety that serves as a quencher of the C-terminal Europium fluorophore (620 nm Em). In the absence of enzyme activity, 620 nm fluorescence is low in the assay and increased linearly over 3 hours in the presence of uninhibited BACE1 enzyme Inhibition of BACE1 cleavage of the QSY7-APP^swe-Eu substrate by inhibitors is manifested as a suppression of 620 nm fluorescence.
Reactions are initiated by addition of 10 μl of 600 nM QSY7-APP^swe-Eu substrate (200 nM final) to give a final reaction volume of 30 μl in a 384 well Nunc HTRF plate. The reactions are incubated at 30° C. for 1.5 hours. The 620 nm fluorescence is then read on a Rubystar HTRF plate reader (BMG Labtechnologies) using a 50 millisecond delay followed by a 400 millisecond acquisition time window Inhibitor IC50 values are derived from non-linear regression analysis of concentration response curves.

Test [2] has as its target purified human autoBACE-2 (Homo sapiens (Human), UniProt Q9Y5Z0). Description: BACE-2 Assay (BACE-HTRF assay). It is filed as biochemical. The settings on record: Ki calculated from IC50 using the Cheng-Prusoff equation; read-out: BACE2 Ki. How it is done:
Inhibitor IC50s at purified human autoBACE-2 are determined in a time-resolved endpoint proteolysis assay that measures hydrolysis of the QSY7-[…]-Eu-amide FRET peptide substrate (BACE-HTRF assay). BACE-mediated hydrolysis of this peptide results in an increase in relative fluorescence (RFU) at 620 nm after excitation with 320 nm light Inhibitor compounds, prepared at 3× the desired final concentration in 1×BACE assay buffer (20 mM sodium acetate pH 5.0, 10% glycerol, 0.1% Brij-35) supplemented with 7.5% DMSO are pre-incubated with an equal volume of autoBACE-2 enzyme diluted in 1×BACE assay buffer (final enzyme concentration 1 nM) in black 384-well NUNC plates for 30 minutes at 30° C. […] DMSO is present at 5% final concentration in the assay. Following laser excitation of sample wells at 320 nm, the fluorescence signal at 620 nm is collected for 400 ms following a 50 μs delay on a RUBYstar HTRF plate reader (BMG Labtechnologies). Raw RFU data is normalized to maximum (1.0 nM BACE/DMSO) and minimum (no enzyme/DMSO) RFU values. IC50s are determined by nonlinear regression analysis (sigmoidal dose response, variable slope) of percent inhibition data with minimum and maximum values set to 0 and 100 percent respectively. Similar IC50s are obtained when using raw RFU data. The Ki values are calculated from the IC50 using the Cheng-Prusoff equation.

purified human autoBACE-2, sequence (Q9Y5Z0 63-473 limits assumed): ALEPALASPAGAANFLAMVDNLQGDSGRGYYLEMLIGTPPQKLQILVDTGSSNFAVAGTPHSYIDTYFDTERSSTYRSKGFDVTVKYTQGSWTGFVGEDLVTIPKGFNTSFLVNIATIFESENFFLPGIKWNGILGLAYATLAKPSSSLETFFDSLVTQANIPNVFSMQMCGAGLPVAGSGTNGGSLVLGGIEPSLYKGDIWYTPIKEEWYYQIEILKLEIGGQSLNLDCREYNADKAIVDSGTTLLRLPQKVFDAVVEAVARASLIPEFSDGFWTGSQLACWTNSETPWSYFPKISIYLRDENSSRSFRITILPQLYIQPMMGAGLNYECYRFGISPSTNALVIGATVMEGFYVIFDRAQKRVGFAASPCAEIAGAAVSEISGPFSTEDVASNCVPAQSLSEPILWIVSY
soluble human BACE1 catalytic domain, sequence (P56817 75-416): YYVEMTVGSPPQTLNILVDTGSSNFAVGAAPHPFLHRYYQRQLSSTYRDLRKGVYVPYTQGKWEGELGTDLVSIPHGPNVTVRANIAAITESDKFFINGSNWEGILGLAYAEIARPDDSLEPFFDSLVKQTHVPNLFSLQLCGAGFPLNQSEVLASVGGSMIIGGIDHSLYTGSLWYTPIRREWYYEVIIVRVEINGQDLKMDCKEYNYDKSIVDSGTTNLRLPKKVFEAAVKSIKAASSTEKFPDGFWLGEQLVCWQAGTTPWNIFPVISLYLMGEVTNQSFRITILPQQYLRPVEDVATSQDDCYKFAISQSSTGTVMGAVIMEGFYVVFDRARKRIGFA

For orientation: Ki means a measure of affinity in units of concentration, obtained from inhibition or displacement. As to `CCCCOc1ccc(-c2nnc(-c3cc(Cl)c([C@]4(C)CS(=O)(=O)N(C)C(=N)N4)s3)o2)cc1` [Example 61], the Ki in test [1] was 100 nM; in test [2], 258 nM.
On the same counts, the results for `CN1C(=N)N[C@](C)(c2sc(-c3nnc(-c4cccnc4)o3)cc2Cl)CS1(=O)=O` [Example 29] are 1050 nM and 698 nM.
On the same counts, the results for `CN1C(=N)N[C@](C)(c2cc(-c3nnc(-c4cncs4)o3)ccc2F)CS1(=O)=O` [Example 50] are 9920 nM and 4220 nM.
In the case of `CN1C(=N)N[C@](C)(c2sc(-c3ccc(-c4ccccc4)[nH]3)cc2Cl)CS1(=O)=O` [Example 1], the values for the Ki in test [1] and in test [2] were 2.1 nM and 0.69 nM, respectively.
Take `CN1C(=N)N[C@](C)(c2sc(-c3cc(-c4ccccc4)no3)cc2Cl)CS1(=O)=O` [Example 14]: the figures for the Ki in test [1] and in test [2] were 943 nM and 144 nM, respectively.
`CN1C(=N)N[C@](C)(c2sc(-c3ccc(-c4nnco4)[nH]3)cc2Cl)CS1(=O)=O` [Example 8]: the figures for the Ki in test [1] and in test [2] were 2.8 nM and 10.9 nM, respectively.
Take `CN1C(=N)N[C@](C)(c2sc(-c3nnc(-c4ccc(C5CCC(F)(F)C5)cc4)o3)cc2Cl)CS1(=O)=O` (stereo partly drawn) [Example 67]: the inhibition constant (Ki) was 1110 nM in test [1] and 1870 nM in test [2].
Turning to `Cc1nc2cc(-c3nnc(-c4cc(Cl)c([C@]5(C)CS(=O)(=O)N(C)C(=N)N5)s4)o3)ccc2s1` [Example 72], the Ki is 422 nM in test [1] and 1150 nM in test [2].
For `CN1C(=N)N[C@](C)(c2cc(-c3ccc(-c4nnco4)[nH]3)ccc2F)CS1(=O)=O` [Example 11] the same measures were 45 nM and 172 nM.
As to `CN1C(=N)N[C@](C)(c2sc(-c3nnc(-c4cocn4)o3)cc2Cl)CS1(=O)=O` [Example 42], the results for the Ki in test [1] and in test [2] were 925 nM and 142 nM, respectively.
With `CN1C(=N)N[C@](C)(c2cc(-c3nnc(-c4nccs4)o3)ccc2F)CS1(=O)=O` [Example 49], the Ki is 4000 nM in test [1] and 490 nM in test [2].
In the case of `CN1C(=N)N[C@](C)(c2sc(-c3nnc(-c4cccc(C#N)c4)o3)cc2Cl)CS1(=O)=O` [Example 31], the values for the Ki in test [1] and in test [2] were 1210 nM and 1240 nM, respectively.
On the same counts, the results for `CN1C(=N)N[C@](C)(c2sc(-c3nnc(-c4nccs4)o3)cc2Cl)CS1(=O)=O` [Example 32] are 402 nM and 44.3 nM.
With `CN1C(=N)N[C@](C)(c2sc(-c3nnc(-c4ccc(C(F)(F)F)c(F)c4)o3)cc2Cl)CS1(=O)=O` [Example 65], the Ki in test [1] is 156 nM; in test [2], 366 nM.
On the same counts, the results for `CN1C(=N)N[C@](C)(c2sc(-c3nnc(-c4cc5ccccn5n4)o3)cc2Cl)CS1(=O)=O` [Example 30] are 260 nM and 96.8 nM.
On the same counts, the results for `CN1C(=N)N[C@](C)(c2sc(-c3nnc(-c4ccc(C(F)(F)F)cn4)o3)cc2Cl)CS1(=O)=O` [Example 75] are 164 nM and 303 nM.
As for `CN1C(=N)N[C@](C)(c2cc(-c3nnc(-c4ccon4)o3)ccc2F)CS1(=O)=O` [Example 55], the Ki is 4940 nM in test [1] and 737 nM in test [2].
For `CN1C(=N)N[C@](C)(c2sc(-c3cc(-c4ccccc4)on3)cc2Cl)CS1(=O)=O` [Example 12], the Ki in test [1] was 1170 nM; in test [2], 364 nM.
In the case of `CN1C(=N)N[C@](C)(c2sc(-c3nnc(-c4ccc(-c5noc(C(F)(F)F)n5)cc4)o3)cc2Cl)CS1(=O)=O` [Example 77], the Ki is 258 nM in test [1] and 1280 nM in test [2].
For `CC(C)Oc1ccc(-c2nnc(-c3cc(Cl)c([C@]4(C)CS(=O)(=O)N(C)C(=N)N4)s3)o2)cc1` [Example 60], the Ki in test [1] was 205 nM; in test [2] it was 533 nM.
As to `CN1C(=N)N[C@](C)(c2sc(-c3nnc(-c4ccc(OC(F)(F)F)cc4)o3)cc2Cl)CS1(=O)=O` [Example 78], the Ki is 56 nM in test [1] and 143 nM in test [2].
